Reference: publication PMC10424242, “Macrocyclic Peptidomimetic Plasmepsin X Inhibitors with Potent In Vitro and In Vivo Antimalarial Activity” (Journal of Medicinal Chemistry, 2023)
Entries after “also recorded” stand apart in the source; their conditions may differ. Read-outs that look alike come from different tables or passages of the source.

How the values were obtained:
PMIV = PMIV (Plasmodium falciparum, UniProt Q8IM16); assay: FRET-based PMIV inhibition assay; format: biochemical, P. falciparum
Sequence of PMIV (Q8IM16 122-449): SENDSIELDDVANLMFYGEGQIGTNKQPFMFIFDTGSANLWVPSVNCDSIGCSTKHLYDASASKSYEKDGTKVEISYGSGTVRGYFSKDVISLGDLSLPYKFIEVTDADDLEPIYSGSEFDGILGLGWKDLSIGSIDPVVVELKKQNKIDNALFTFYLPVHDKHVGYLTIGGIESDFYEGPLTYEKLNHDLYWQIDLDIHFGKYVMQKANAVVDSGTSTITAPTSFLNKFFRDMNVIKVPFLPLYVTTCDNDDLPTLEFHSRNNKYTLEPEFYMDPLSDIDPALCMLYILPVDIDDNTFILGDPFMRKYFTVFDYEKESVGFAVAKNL
Description: (§1) A fluorescence resonance energy transfer (FRET)-based assay was performed to assess the ability of the compounds to inhibit PMIV, CatD, and BACE1. Serial dilutions of test compounds were dispensed in a white 96-well plate. […] The mixture was incubated for 20 min at 37 °C. […] IC50 values were calculated with GraphPad Prism 8.0 using the nonlinear regression, variable slope (four parameters). Compounds were tested in triplicate.

[1] = Plasma protein binding (rapid equilibrium dialysis); format: in vitro ADME; settings: pH 7.4, mouse plasma, 2 h at 37 °C
Description: Plasma protein binding was performed with rapid equilibrium dialysis (RED) device inserts containing a dialysis membrane with a molecular weight cut-off of 8000 Daltons. Inserts were placed in the single-use RED plate without prior preparation.
The test compound at a concentration of 5 μM was added to mouse plasma and dialyzed against phosphate-buffered saline (PBS, pH 7.4) for 2 h at 37 °C. Propranolol hydrochloride was used as a positive control (high PPB), and fluconazole was used as negative control (low PPB). After dialysis, the drug concentration in the buffer and plasma compartments was quantified by liquid chromatography and tandem mass spectrometry (LC-MS/MS) analysis.

BACE1 = BACE1 (Homo sapiens, UniProt P56817); assay: FRET-based BACE1 inhibition assay (selectivity counter screen); format: biochemical
Sequence of BACE1 (P56817 46-501): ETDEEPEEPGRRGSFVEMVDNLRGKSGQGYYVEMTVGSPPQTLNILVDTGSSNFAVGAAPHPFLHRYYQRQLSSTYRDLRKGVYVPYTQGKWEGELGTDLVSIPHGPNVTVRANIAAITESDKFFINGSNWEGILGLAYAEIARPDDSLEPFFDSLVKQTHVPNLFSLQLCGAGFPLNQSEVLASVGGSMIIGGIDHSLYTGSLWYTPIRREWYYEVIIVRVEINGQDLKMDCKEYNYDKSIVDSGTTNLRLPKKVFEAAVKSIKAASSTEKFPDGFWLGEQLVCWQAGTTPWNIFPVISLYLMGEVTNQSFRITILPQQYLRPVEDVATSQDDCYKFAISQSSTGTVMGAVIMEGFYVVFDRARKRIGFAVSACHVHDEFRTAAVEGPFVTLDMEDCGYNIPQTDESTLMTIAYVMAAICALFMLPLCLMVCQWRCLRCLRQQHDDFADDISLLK
Description: as §1

cathepsin D (CatD) = cathepsin D (CatD) (Homo sapiens, UniProt P07339); assay: FRET-based CatD inhibition assay (selectivity counter screen); format: biochemical
Sequence of cathepsin D (CatD) (P07339 65-412): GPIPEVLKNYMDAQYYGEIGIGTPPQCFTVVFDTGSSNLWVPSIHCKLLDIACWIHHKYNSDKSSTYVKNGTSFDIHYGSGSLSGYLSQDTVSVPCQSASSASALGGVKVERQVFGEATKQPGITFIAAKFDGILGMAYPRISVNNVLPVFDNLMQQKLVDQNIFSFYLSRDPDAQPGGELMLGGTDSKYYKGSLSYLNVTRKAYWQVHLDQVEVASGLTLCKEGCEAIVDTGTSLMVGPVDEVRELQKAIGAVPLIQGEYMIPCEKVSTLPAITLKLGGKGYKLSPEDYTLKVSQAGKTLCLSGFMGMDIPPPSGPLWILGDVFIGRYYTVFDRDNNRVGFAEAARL
Description: as §1

[2] = Liver microsomal metabolic stability; format: in vitro ADME, mouse; settings: pooled liver microsomes, pH 7.4, mouse liver microsomes, 5 μM; for microsomal CLint at 1 h, 5 μM: read-out: microsomal stability CL(int)
Description: Microsomal stability assays are performed as described elsewhere.[41] Test compounds and pooled mouse liver microsomes are incubated in potassium phosphate buffer in the presence of the cofactor NADPH at 37 °C. Reaction mixtures (700 μL) contain a final concentration of 5 μM test compound, 0.05% DMSO, 0.5 mg/mL microsomes, and ∼0.7–0.9 mM NADPH in 100 mM potassium phosphate buffer at pH 7.4. Reactions are terminated by the addition of 100 μL of the reaction mixture to 900 μL of acetonitrile after 0, 5, 15, 30, 45, and 60 min of incubation. Samples were centrifuged, and the resultant supernatant was analyzed by ultra-performance liquid chromatography–tandem mass spectrometry (UPLC-MS/MS). The amount of remaining compound is calculated and compared to the initial amount of test compound (zero time point). Verapamil is used as a positive control, and samples prepared without cofactor NADPH are used as a negative control (0 and 60 min). The in vitro metabolic stability parameters (half-life value (t1/2) and intrinsic clearance value (Clint)) are calculated from the slope of the Ln of concentration remaining vs the time curve.

[3] = biological target: recombinant P. falciparum PMX (Plasmodium falciparum, UniProt Q8IAS0); assay: Recombinant P. falciparum PMX inhibition assay (fluorogenic substrate Rh2N); format: biochemical
Sequence of recombinant P. falciparum PMX (Q8IAS0 222-573): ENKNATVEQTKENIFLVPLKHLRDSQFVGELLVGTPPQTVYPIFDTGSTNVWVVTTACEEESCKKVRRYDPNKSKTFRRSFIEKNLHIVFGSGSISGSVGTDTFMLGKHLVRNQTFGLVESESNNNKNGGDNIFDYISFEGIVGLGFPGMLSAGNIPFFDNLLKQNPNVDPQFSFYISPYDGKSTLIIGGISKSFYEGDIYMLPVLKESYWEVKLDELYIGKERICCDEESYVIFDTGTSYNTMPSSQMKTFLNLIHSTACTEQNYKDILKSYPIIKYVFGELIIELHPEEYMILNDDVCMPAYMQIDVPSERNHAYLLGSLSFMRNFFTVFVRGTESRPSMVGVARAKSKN
Description: The fluorescence of this peptide is quenched by the spatial proximity of the DABCYL/EDANS groups in the uncleaved peptide and is increased upon cleavage at the internal F–I bond. […] Control wells contained no inhibitor, and the plate was blanked against the substrate only in DB. […] All experiments were performed in duplicate.

[4] = system: P. falciparum Pf3D7^0087/N9; assay: In vivo efficacy against P. falciparum in the TAD PfalcHuMouse model; settings: three times a day for 4 days at 40 mg/kg, oral; 40 mg/kg
Description: Therapeutic efficacy studies were performed at TAD using a standardized humanized mouse model of P. falciparum malaria[31] with modifications.[34] […] The volume of injections was 1 and 0.7 mL for i.p. or i.v. inoculation, respectively.
The inoculum was obtained from peripheral blood of CO2-euthanized donor mice harboring 5–10% parasitemia.
Before drug administration, each infected mouse was randomly assigned to its corresponding treatment. […] The treatment was administered by oral gavage with 20G straight reusable feeding needles (Fine Science Tools GmbH) at 10 mL·kgbodyweight^–1 unless otherwise stated.
Parasitemia was measured in serial 2 μL of samples of tail blood by flow cytometry and expressed as the % of parasitized erythrocytes with respect to the total erythrocytes in circulation.
The clearance of parasitized erythrocytes from the peripheral blood of mice was assessed by measuring the parasite reduction ratio (PRR) calculated as the ratio between parasitemia at Day n + 2 divided by parasitemia at Day n for each individual of the study.
The parasiticidal effect of drugs in vivo was assessed by measuring the day of recrudescence (DoR) as described.[34] In short, DoR was defined as the day at which parasitemia after drug treatment reached the % parasitemia at treatment inception. Drug-treated mice were deemed cured if there was no detectable parasitemia 60 days after treatment.

[5] = recombinant PMX, read-out: PMX, nM (IC50)
[6] = Table 3, read-out: PMIV, nM (as listed in Table 3)
[7] = Table 3, read-out: PMX, nM (as listed in Table 3)

| SMILES | IC50 (PMIV) | IC50 (PMIV; read-out: PMIV, nM (IC50)) | fraction unbound at 2 h, 5 µM [1] | IC50 (BACE1) | IC50 (cathepsin D (CatD)) | half-life at 1 h, 5 μM [2] | microsomal CLint at 1 h, 5 μM [2] | IC50 [3] | IC50 [3, 5] | IC50 (PMIV; [6]) | IC50 [3, 7] | effect on parasite burden [4] | half-life at 5 μM [2] | reduction of PMX inhibitory potency ([3]; compared to analogue 7a) |
| --- | --- | --- | --- | --- | --- | --- | --- | --- | --- | --- | --- | --- | --- | --- |
| COc1cccc(C(C)(C)NC[C@@H](O)[C@@H]2Cc3cccc(c3)OCCCCN(CCC(F)(F)F)C(=O)c3cccc(c3)C(=O)N2)c1 [7d, (S)-4-((R)-1-Hydroxy-2-((2-(3-methoxyphenyl)propan-2-yl)amino)ethyl)-12-(3,3,3-trifluoropropyl)-7-oxa-3,12-diaza-1,6(1,3)-dibenzenacyclotridecaphane-2,13-dione] | 170 ± 20 nM | 61 ± 4 nM | 0.0125 | 2100 ± 100 nM | 230 ± 20 nM | 20.4 min | 67.9 µL/min/mg | 5.3 ± 3 nM | 8.6 ± 2.4 nM | – | – | – | – | – |
| CCCN(CCC)C(=O)c1cccc(C(=O)N[C@@H](Cc2ccccc2)[C@H](O)CNC(C)(C)c2cccc(OC)c2)c1 [6a] | – | – | 0.009 | – | – | 6.4 min | 216 µL/min/mg | – | 6.2 ± 0.3 nM | – | – | – | – | – |
| CCCN1CCCCCOc2cccc(c2)C[C@@H]([C@H](O)CNC(C)(C)c2cccc(OC)c2)NC(=O)c2cccc(c2)C1=O [7g, (S)-4-((R)-1-Hydroxy-2-((2-(3-methoxyphenyl)propan-2-yl)amino)ethyl)-13-propyl-7-oxa-3,13-diaza-1,6(1,3)-dibenzenacyclotetradecaphane-2,14-dione] | – | 190 nM | 0.0079 | 6000 ± 300 nM | 1200 nM | 7.64 min | 181 µL/min/mg | – | 6.9 ± 0.49 nM | 190 nM | 6.9 ± 0.49 nM | – | – | – |
| COc1cccc(C(C)(C)NC[C@@H](O)[C@@H]2Cc3cccc(c3)OCCCCN(CCN(C)C)C(=O)c3cccc(c3)C(=O)N2)c1 [7f, (S)-12-(2-(Dimethylamino)ethyl)-4-((R)-1-hydroxy-2-((2-(3-methoxyphenyl)propan-2-yl)amino)ethyl)-7-oxa-3,12-diaza-1,6(1,3)-dibenzenacyclotridecaphane-2,13-dione] | 40 nM | 1730 ± 90 nM | 0.0695 | 52400 ± 1600 nM | 6800 ± 340 nM | – | – | 2.5 ± 0.2 nM | 16.7 ± 1.5 nM | – | – | only a weak effect on parasite burden; also recorded: measurable reduction in parasitemia | > 120 min | 4 fold |
| COc1cccc(C(C)(C)NC[C@@H](O)[C@@H]2Cc3cccc(c3)OCCCCN(CC(C)(C)C)C(=O)c3cccc(c3)C(=O)N2)c1 [7e] | 61 ± 4 nM | 40 nM | 0.0035 | 1900 ± 100 nM | 630 nM | 13.7 min | 101 µL/min/mg | 8.6 ± 2.4 nM | 2.5 ± 0.2 nM | – | – | – | – | – |
| CCCN1CCOc2cccc(c2)C[C@@H]([C@H](O)CNC(C)(C)c2cccc(OC)c2)NC(=O)c2cccc(c2)C1=O [7h] | – | 200 nM | 0.0384 | 1850 ± 90 nM | 600 nM | 13.9 min | 99.8 µL/min/mg | – | 6.8 ± 0.59 nM | 200 nM | 6.8 ± 0.59 nM | – | – | – |
| COc1cccc(C(C)(C)NC[C@@H](O)[C@@H]2Cc3cccc(c3)OCCCCNC(=O)c3cccc(c3)C(=O)N2)c1 [7b, (S)-4-((R)-1-Hydroxy-2-((2-(3-methoxyphenyl)propan-2-yl)amino)ethyl)-7-oxa-3,12-diaza-1,6(1,3)-dibenzenacyclotridecaphane-2,13-dione] | 60 ± 3 nM | 510 ± 30 nM | 0.0274 | 910 ± 40 nM | 650 ± 30 nM | 31.3 min | 44.3 µL/min/mg | 4.1 ± 0.3 nM | 11.2 ± 0.7 nM | – | – | – | – | – |
| COc1cccc(C(C)(C)NC[C@@H](O)[C@@H]2Cc3cccc(c3)OCCCCN(C)C(=O)c3cccc(c3)C(=O)N2)c1 [7c, (S)-4-((R)-1-Hydroxy-2-((2-(3-methoxyphenyl)propan-2-yl)amino)ethyl)-12-methyl-7-oxa-3,12-diaza-1,6(1,3)-dibenzenacyclotridecaphane-2,13-dione] | 510 ± 30 nM | 170 ± 20 nM | 0.0351 | 1030 ± 50 nM | 320 ± 20 nM | 16.9 min | 81.9 µL/min/mg | 11.2 ± 0.7 nM | 5.3 ± 3 nM | – | – | – | – | – |
| CCCN1CCOCCc2cccc(c2)C[C@@H]([C@H](O)CNC(C)(C)c2cccc(OC)c2)NC(=O)c2cccc(c2)C1=O [7i, (S)-4-((R)-1-Hydroxy-2-((2-(3-methoxyphenyl)propan-2-yl)amino)ethyl)-12-propyl-9-oxa-3,12-diaza-1,6(1,3)-dibenzenacyclotridecaphane-2,13-dione] | – | 81 ± 4 nM | 0.0287 | 22700 ± 1100 nM | 1650 ± 80 nM | 8.39 min | 165 µL/min/mg | – | 4.6 ± 0.07 nM | 81 ± 4 nM | 4.6 ± 0.07 nM | – | – | – |
